Assays:
Test in all cases: relative viability (nuclei count vs DMSO), 5 days (fraction); higher = more cells survive
[1] = compound: COc1cc([C@@H]2c3cc4c(cc3[C@@H](O[C@@H]3O[C@@H]5CO[C@@H](C)O[C@H]5[C@H](O)[C@H]3O)[C@H]3COC(=O)[C@H]23)OCO4)cc(OC)c1O [Etoposide] + CC(C)C[C@H](NC(=O)[C@H](Cc1ccccc1)NC(=O)c1cnccn1)B(O)O [Bortezomib] (partner 0.002 µM)
Outline: (§1)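 After 5 days of treatment, lung cancer cells in 1536-well plates were fixed and stained in a single step (final 0.05% Triton X-100, 1% formaldehyde, 1 ug/ml Hoechst) and their nuclei counted on 4× images. Treatment had been applied by pin tool the day after seeding as one drug alone or as a fixed anchor-drug dose with five library-drug doses (not always all listed) in √10 steps. Relative viability is the nuclei count of treated wells divided by that of vehicle wells, and values are medians of duplicate plates.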

[2] = compound: COc1cc([C@@H]2c3cc4c(cc3[C@@H](O[C@@H]3O[C@@H]5CO[C@@H](C)O[C@H]5[C@H](O)[C@H]3O)[C@H]3COC(=O)[C@H]23)OCO4)cc(OC)c1O [Etoposide] + C[C@]1(O)C[C@@H](c2nc(-c3ccc4ccc(-c5ccccc5)nc4c3)c3c(N)nccn32)C1 [Linsitinib] (partner 1 µM)
Outline: as §1

[3] = compound: CC1=C(N=C(N=C1N)[C@H](CC(=O)N)NC[C@@H](C(=O)N)N)C(=O)N[C@@H]([C@H](C2=CN=CN2)OC3C(C(C(C(O3)CO)O)O)OC4C(C(C(C(O4)CO)O)OC(=O)N)O)C(=O)N[C@H](C)[C@H]([C@H](C)C(=O)N[C@@H]([C@@H](C)O)C(=O)NCCC5=NC(=CS5)C6=NC(=CS6)C(=O)NCCC[S+](C)C)O [Bleomycin] + O=C(c1cc(Cc2n[nH]c(=O)c3ccccc23)ccc1F)N1CCN(C(=O)C2CC2)CC1 [Olaparib] (partner 8 µM); conditions: main component drawn
Outline: as §1

[4] = compound: CC1=C(N=C(N=C1N)[C@H](CC(=O)N)NC[C@@H](C(=O)N)N)C(=O)N[C@@H]([C@H](C2=CN=CN2)OC3C(C(C(C(O3)CO)O)O)OC4C(C(C(C(O4)CO)O)OC(=O)N)O)C(=O)N[C@H](C)[C@H]([C@H](C)C(=O)N[C@@H]([C@@H](C)O)C(=O)NCCC5=NC(=CS5)C6=NC(=CS6)C(=O)NCCC[S+](C)C)O [Bleomycin] + Cc1nc(NC(=O)N2CCC[C@H]2C(N)=O)sc1-c1ccnc(C(C)(C)C(F)(F)F)c1 [Alpelisib] (partner 2 µM); conditions: main component drawn
Outline: as §1

Cell Line | relative viability ([1]; first compound 0.01 µM) | relative viability ([1]; first compound 0.03162 µM) | relative viability ([1]; first compound 0.1 µM) | relative viability ([1]; first compound 0.3162 µM) | relative viability ([1]; first compound 1 µM) | relative viability ([2]; first compound 0.01 µM) | relative viability ([2]; first compound 0.03162 µM) | relative viability ([2]; first compound 0.1 µM) | relative viability ([2]; first compound 0.3162 µM) | relative viability ([2]; first compound 1 µM) | relative viability ([3]; first compound 0.01 µM) | relative viability ([3]; first compound 0.03162 µM) | relative viability ([3]; first compound 0.1 µM) | relative viability ([3]; first compound 0.3162 µM) | relative viability ([3]; first compound 1 µM) | relative viability ([4]; first compound 0.01 µM) | relative viability ([4]; first compound 0.03162 µM) | relative viability ([4]; first compound 0.1 µM) | relative viability ([4]; first compound 0.3162 µM) | relative viability ([4]; first compound 1 µM)
NCI-H3122 | 1.04 | 0.986 | 1.04 | 0.816 | 0.47 | 1.04 | 1.05 | 1.03 | 0.88 | 0.449 | 0.593 | 0.599 | 0.506 | 0.364 | 0.279 | 0.737 | 0.709 | 0.778 | 0.378 | 0.349
EPLC-272H | 0.89 | 1.15 | 0.669 | 0.958 | 0.526 | 1.29 | 1.12 | 0.693 | 1.14 | 0.504 | 0.407 | 0.237 | 0.183 | 0.0606 | 0.111 | 0.889 | 0.847 | 0.797 | 0.308 | 0.176
EBC-1 | 0.528 | 0.503 | 0.55 | 0.581 | 0.379 | 0.903 | 0.942 | 0.349 | 0.788 | 0.466 | 0.604 | 0.671 | 0.645 | 0.419 | 0.331 | 0.777 | 0.718 | 0.696 | 0.501 | 0.404
NCI-H1915 | 0.963 | 0.969 | 0.992 | 0.906 | 0.516 | 1.1 | 1.16 | 1.06 | 0.994 | 0.851 | 0.2 | 0.226 | 0.166 | 0.137 | 0.11 | 0.896 | 0.888 | 0.68 | 0.325 | 0.167
NCI-H647 | 0.807 | 1.4 | 0.72 | 0.298 | 0.147 | 1.14 | 1.15 | 1.13 | 0.416 | 0.164 | 0.161 | 0.148 | 0.195 | 0.0429 | 0.0447 | 0.575 | 0.448 | 0.337 | 0.109 | 0.0917
NCI-H441 | 0.457 | 0.469 | 0.447 | 0.286 | 0.177 | 0.51 | 0.474 | 0.292 | 0.179 | 0.148 | 0.539 | 0.505 | 0.399 | 0.338 | 0.226 | – | 0.699 | 0.645 | 0.444 | 0.279
NCI-H1299 | 1.03 | 0.999 | 1.11 | 0.957 | 0.821 | 0.973 | 1.03 | 1 | 0.879 | 0.7 | 0.819 | 0.904 | 0.681 | 0.346 | 0.252 | 0.978 | 1.03 | 0.923 | 0.529 | 0.416

Source: the supplement of paper PMC10307832
